Results as given in PubChem BioAssay (NCI).
“And” between values parts separate entries of the source, which are not always exact repeats. Identical values can stand only once.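 Cells were grown in 96-well plates and exposed to each compound for 48 hours at five concentrations; endpoints were interpolated linearly between bracketing concentrations, or set to the highest concentration if not reached. The concentration for 50% growth inhibition is given as GI50. Definition used: TGI = concentration required for complete inhibition of growth.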

Legend:
Assay in all cases: NCI anticancer screen, dose series, 48 h
[1] = test system: SK-MEL-5 melanoma
[2] = test system: TK-10 renal
[3] = test system: SF-295 CNS
[4] = test system: UACC-62 melanoma
[5] = test system: UACC-257 melanoma
[6] = test system: ACHN renal
[7] = test system: OVCAR-8 ovarian
[8] = test system: SK-MEL-28 melanoma
[9] = test system: SR leukemia
[10] = test system: HS 578T breast

Row | SMILES | TGI [1] | TGI [2] [µM] | TGI [3] | TGI [4] | TGI [5] | TGI [6] [µM] | TGI [7] [µM] | TGI [8] | TGI [9] [µM] | GI50 [1] [µM] | GI50 [2] [µM] | GI50 [3] [µM] | GI50 [4] | GI50 [5] | GI50 [6] [µM] | GI50 [9] [µM] | GI50 [7] [µM] | GI50 [8] | TGI [10] [µM] | GI50 [10] [µM]
1 | O=c1c2ccccc2c(=O)n2n1CC=CC2 | > 100 µM | > 100 | > 100 µM | > 100 µM | > 100 µM | > 100 | > 100 | > 100 µM | – | – | – | – | – | – | – | – | – | – | – | –
2 | COc1ccc2c(c1)[n+]([O-])c(-c1ccc(OC)c(OC)c1)c(N)[n+]2[O-] | 83 µM | > 100 | > 100 µM | > 100 µM | > 100 µM | > 100 | > 100 | 69.4 µM | – | – | – | – | – | – | – | – | – | – | – | –
3 | O=C1NC2(CCCCCC2)C2CCCCCCC12O (stereo unspecified) | > 100 µM | > 100 | > 100 µM | > 100 µM | > 100 µM | > 100 | > 100 | > 100 µM | > 100 | – | – | – | – | – | – | – | – | – | – | –
4 | N.N.N.N.N.[Cl-].[Co+3].c1ccc(-c2nn[n-]n2)cc1 | > 100 µM | > 100 | > 100 µM | > 100 µM | > 100 µM | > 100 | > 100 | > 100 µM | > 100 | > 100 | > 100 | > 100 | > 100 µM | > 100 µM | > 100 | > 100 | > 100 | > 100 µM | – | –
5 | COCC(O)Cn1ccnc1[N+](=O)[O-] (stereo unspecified) | – | > 100 | > 100 µM | – | > 100 µM | > 100 | > 100 | > 100 µM | > 100 | – | – | – | – | – | – | – | – | – | – | –
6 | Cc1oc2c(C)c3oc(=O)cc(C)c3cc2c1CN1C(=O)C2OCCOCCOCCOCCOCCO[C@H]2C1=O (stereo partly specified) | > 100 µM | > 100 | > 100 µM | > 100 µM | > 100 µM | > 100 | > 100 | – | > 100 | – | – | – | – | – | – | – | – | – | – | –
7 | O=C(O)C1OC1(c1cccc(Cl)c1)c1ccccc1Cl (stereo unspecified) | 35.4 µM | > 100 | 76.5 µM | 35 µM | 70.6 µM | > 100 | > 100 | 61.3 µM | – | – | – | – | – | – | – | – | – | – | 52.4 | –
8 | Cc1ccc(C(CC(=O)c2ccccc2)C2C(=O)NC(=O)NC2=O)cc1 (stereo unspecified) | > 100 µM | > 100 | > 100 µM | > 100 µM | > 100 µM | > 100 | > 100 | > 100 µM | – | > 100 | > 100 | > 100 | > 100 µM | > 100 µM | > 100 | – | > 100 | > 100 µM | > 100 | > 100
9 | CCC(C)[C@H]1O[C@]2(C=C[C@@H]1C)C[C@@H]1C[C@@H](C/C=C(\C)[C@@H](OC3C[C@H](OC)C(O[C@H]4C[C@H](OC)[C@@H](O)[C@H](C)O4)[C@H](C)O3)[C@@H](C)/C=C/C=C3\CO[C@@H]4[C@H](O)C(C)=C[C@@H](C(=O)O1)[C@]34O)O2 (stereo partly specified) | 2.28 µM | 2.74 | – | 7.64 µM | 5.74 µM | 5.63 | 9.73 | 7.23 µM | – | 0.991 | 1.07 | – | 1.53 µM | 1.56 µM | 1.72 | – | 1.72 | 2.08 µM | 2.87 | 1.02
10 | C1=CC=C2NCCCCCCCNC3=CC=CC=CC3=NCCCCCCCN=C2C=C1 | – | – | > 100 µM | – | > 100 µM | > 100 | > 100 | – | > 100 | – | – | – | – | – | – | – | – | – | – | –
11 | COc1cccc2c1C(=O)c1c(O)c3c(c(O)c1C2=O)CC(O)(C(O)CO)CC3OC1CC(N2CCOCC2)C(O)C(C)O1 (stereo unspecified) | 0.00553 µM and 0.0332 µM | – | 0.0718 µM and 0.106 µM | – | 0.013 µM and 0.0424 µM | 0.122 | 0.0281 | 0.0168 µM and 0.0592 µM | – | 0.017 | 0.0233 | 0.0243 | – | 0.0199 µM | – | – | – | 0.0221 µM | 0.214 | –
12 | CN1CCN(CCOc2ccc(-c3cnc4c(-c5ccc(C(F)(F)F)cc5)cnn4c3)cc2)CC1 | 3.03 µM | 3.24 | 3.31 µM | 3.13 µM | 3.34 µM | 2.91 | 3.46 | 3.11 µM | – | 1.63 | 1.72 | 1.75 | 1.69 µM | 1.66 µM | 1.57 | – | 1.75 | 1.68 µM | 3.41 | 1.62
13 | CCOC(=O)c1c2c(n(Cc3ccc(Cl)cc3Cl)c1C)-c1nc[nH]c1C(=O)C2=O | 25.7 µM | 41.2 | 92.2 µM | – | 27.3 µM | 16.1 | 22.2 | 28.9 µM | 2.79 | 13 | 20.1 | 20.5 | – | 14.2 µM | 4.45 | 1.21 | 10.5 | 15.6 µM | 74.5 | 23.1
14 | OCC1C(/C=C/c2ccoc2)ON2CCCC12 (stereo unspecified) | – | > 100 | > 100 µM | – | > 100 µM | > 100 | > 100 | > 100 µM | – | – | – | – | – | – | – | – | – | – | – | –
15 | Cc1cc(C(=C2C=CC(=Nc3ccccc3)C=C2)c2ccc(Nc3ccccc3)cc2)ccc1N | 0.718 µM | 1.11 | 1.35 µM | 0.796 µM | 1.04 µM | 1.31 | 0.913 | 1.4 µM | – | 0.253 | 0.359 | 0.385 | 0.25 µM | 0.286 µM | 0.377 | – | 0.254 | 0.368 µM | – | –
16 | O=C(Cn1c(=O)c(-c2ccccc2)nc2ccccc21)Nc1ccc(F)cc1 | > 100 µM | > 100 | > 100 µM | > 100 µM | > 100 µM | > 100 | > 100 | > 100 µM | – | 7.38 | 85 | > 100 | 67.5 µM | > 100 µM | 42.6 | – | 39.6 | > 100 µM | 88.8 | 29.9
17 | COc1cc(NC(C)CCCN)c2ncccc2c1 (stereo unspecified) | 32.3 µM and 57.3 µM | > 100 | > 100 µM | 51.9 µM and > 89.5 µM | 27.2 µM and 54.5 µM | > 100 | > 100 | 47.5 µM and > 100 µM | – | – | – | – | 20.3 µM and 45.3 µM | 11.3 µM and 30.2 µM | – | – | – | 22.1 µM and 74 µM | > 100 | –
